Test results published in the NIST ThermoML archive (doi:10.1016/j.fluid.2006.06.006).
Where “and” joins values, the source holds several entries; their conditions need not be identical. Equal entries are not always repeated. Numbers after ± are expanded uncertainties.

Assay: excess molar enthalpy (molar enthalpy of mixing); xn = mol fraction of the nth substance listed
Settings: Liquid

O=C=O [carbon dioxide] + O
Settings	excess molar enthalpy
323.1 K, 20200 kPa, x1 = 0.0274	-0.0246 ± 0.00098 kcal/mol
323.1 K, 20200 kPa, x1 = 0.0288	-0.0248 ± 0.00098 kcal/mol
323.1 K, 20200 kPa, x1 = 0.0359	-0.0249 ± 0.00098 kcal/mol
323.1 K, 20200 kPa, x1 = 0.0427	-0.0252 ± 0.00098 kcal/mol
323.1 K, 20200 kPa, x1 = 0.0461	-0.0249 ± 0.00098 kcal/mol
323.1 K, 20200 kPa, x1 = 0.0494	-0.0251 ± 0.00098 kcal/mol
323.1 K, 20200 kPa, x1 = 0.0692	-0.0247 ± 0.00098 kcal/mol
373.1 K, 5050 kPa, x1 = 0.002	-0.00308 ± 0.00055 kcal/mol
373.1 K, 5050 kPa, x1 = 0.0025	-0.00418 ± 0.000574 kcal/mol
373.1 K, 5050 kPa, x1 = 0.003	-0.00476 ± 0.000598 kcal/mol
373.1 K, 5050 kPa, x1 = 0.004	-0.00614 ± 0.000621 kcal/mol
373.1 K, 5050 kPa, x1 = 0.0045	-0.00686 ± 0.000621 kcal/mol
373.1 K, 5050 kPa, x1 = 0.005	-0.00767 ± 0.000645 kcal/mol
373.1 K, 5050 kPa, x1 = 0.006	-0.00901 ± 0.000669 kcal/mol
373.1 K, 5050 kPa, x1 = 0.007	-0.01 ± 0.000693 kcal/mol
373.1 K, 5050 kPa, x1 = 0.0075	-0.0109 ± 0.000717 kcal/mol
373.1 K, 5050 kPa, x1 = 0.008	-0.0112 ± 0.000717 kcal/mol
373.1 K, 5050 kPa, x1 = 0.009	-0.0112 ± 0.000717 kcal/mol
373.1 K, 5050 kPa, x1 = 0.01	-0.0113 kcal/mol and -0.011 kcal/mol
373.1 K, 5050 kPa, x1 = 0.011	-0.0113 ± 0.000717 kcal/mol
373.1 K, 5050 kPa, x1 = 0.0125	-0.0109 ± 0.000717 kcal/mol
373.1 K, 5050 kPa, x1 = 0.014	-0.011 ± 0.000717 kcal/mol
373.1 K, 5050 kPa, x1 = 0.0149	-0.0103 ± 0.000693 kcal/mol
373.1 K, 5050 kPa, x1 = 0.0154	-0.0106 ± 0.000693 kcal/mol
373.1 K, 5050 kPa, x1 = 0.0174	-0.00997 ± 0.000693 kcal/mol
373.1 K, 5050 kPa, x1 = 0.0179	-0.0097 ± 0.000693 kcal/mol
373.1 K, 5050 kPa, x1 = 0.0198	-0.00939 ± 0.000669 kcal/mol
373.1 K, 10080 kPa, x1 = 0.0068	-0.00801 ± 0.000645 kcal/mol
373.1 K, 10080 kPa, x1 = 0.0081	-0.0088 ± 0.000669 kcal/mol
373.1 K, 10080 kPa, x1 = 0.0094	-0.0104 ± 0.000693 kcal/mol
373.1 K, 10080 kPa, x1 = 0.0101	-0.0114 ± 0.000717 kcal/mol
373.1 K, 10080 kPa, x1 = 0.0108	-0.0122 ± 0.000741 kcal/mol
373.1 K, 10080 kPa, x1 = 0.0134	-0.0147 ± 0.000789 kcal/mol
373.1 K, 10080 kPa, x1 = 0.0135	-0.0145 ± 0.000789 kcal/mol
373.1 K, 10080 kPa, x1 = 0.02	-0.0151 ± 0.000789 kcal/mol
373.1 K, 10080 kPa, x1 = 0.0201	-0.0148 ± 0.000789 kcal/mol
373.1 K, 10080 kPa, x1 = 0.0228	-0.0142 ± 0.000765 kcal/mol
373.1 K, 10080 kPa, x1 = 0.0263	-0.0141 ± 0.000765 kcal/mol
373.1 K, 10080 kPa, x1 = 0.0265	-0.0145 ± 0.000765 kcal/mol
373.1 K, 10080 kPa, x1 = 0.0294	-0.0134 ± 0.000765 kcal/mol
373.1 K, 10080 kPa, x1 = 0.039	-0.0134 ± 0.000765 kcal/mol
373.1 K, 10080 kPa, x1 = 0.0516	-0.0122 ± 0.000741 kcal/mol
373.1 K, 19500 kPa, x1 = 0.0037	-0.0016 ± 0.000526 kcal/mol
373.1 K, 19500 kPa, x1 = 0.0044	-0.00182 ± 0.000526 kcal/mol
373.1 K, 19500 kPa, x1 = 0.0051	-0.00198 ± 0.000526 kcal/mol
373.1 K, 19500 kPa, x1 = 0.0059	-0.00225 ± 0.000526 kcal/mol
373.1 K, 19500 kPa, x1 = 0.0066	-0.00251 ± 0.00055 kcal/mol
373.1 K, 19500 kPa, x1 = 0.0081	-0.00294 ± 0.00055 kcal/mol
373.1 K, 19500 kPa, x1 = 0.0087	-0.00335 ± 0.00055 kcal/mol
373.1 K, 19500 kPa, x1 = 0.0088	-0.00327 ± 0.00055 kcal/mol
373.1 K, 19500 kPa, x1 = 0.0095	-0.00337 ± 0.00055 kcal/mol
373.1 K, 19500 kPa, x1 = 0.011	-0.00411 ± 0.000574 kcal/mol
373.1 K, 19500 kPa, x1 = 0.0123	-0.00454 ± 0.000574 kcal/mol
373.1 K, 19500 kPa, x1 = 0.0145	-0.00464 ± 0.000574 kcal/mol
373.1 K, 19500 kPa, x1 = 0.0146	-0.00492 ± 0.000598 kcal/mol
373.1 K, 19500 kPa, x1 = 0.0159	-0.00504 ± 0.000598 kcal/mol
373.1 K, 19500 kPa, x1 = 0.0167	-0.00492 ± 0.000598 kcal/mol
373.1 K, 19500 kPa, x1 = 0.0181	-0.00554 ± 0.000598 kcal/mol
373.1 K, 19500 kPa, x1 = 0.0182	-0.00535 ± 0.000598 kcal/mol
373.1 K, 19500 kPa, x1 = 0.0195	-0.00564 ± 0.000598 kcal/mol
373.1 K, 19500 kPa, x1 = 0.0217	-0.0054 ± 0.000598 kcal/mol
373.1 K, 19500 kPa, x1 = 0.0218	-0.0054 ± 0.000598 kcal/mol
373.1 K, 19500 kPa, x1 = 0.0251	-0.00531 ± 0.000598 kcal/mol
373.1 K, 19500 kPa, x1 = 0.0253	-0.00538 ± 0.000598 kcal/mol
373.1 K, 19500 kPa, x1 = 0.0265	-0.00526 ± 0.000598 kcal/mol
373.1 K, 19500 kPa, x1 = 0.03	-0.00488 ± 0.000598 kcal/mol
373.1 K, 19500 kPa, x1 = 0.0521	-0.00258 ± 0.00055 kcal/mol
373.1 K, 19500 kPa, x1 = 0.0603	-0.00186 ± 0.000526 kcal/mol
373.1 K, 19500 kPa, x1 = 0.0688	-0.00086 ± 0.000502 kcal/mol
373.1 K, 19500 kPa, x1 = 0.0691	-0.00129 ± 0.000526 kcal/mol
373.1 K, 19500 kPa, x1 = 0.0771	-0.000478 ± 0.000502 kcal/mol
